The source made the active and inactive calls.
Key:
[1] = target: DNA topoisomerase (Yersinia pestis, UniProt A0A2S9PM60); assay: Yersinia topoisomerase I cleavage product accumulation – biochemical, cherry-pick, dose response (AID 588525)
[2] = target: T1, Carboxy-terminal domain RNA polymerase II polypeptide A small phosphatase 1 (Homo sapiens, UniProt Q9GZU7); assay: CTDSP1 inhibitors, concentration-response, biochemical, absorbance readout, ultra-high-throughput screen actives (AID 540297); assay type: functional
T1 sequence (Q9GZU7 whole entry): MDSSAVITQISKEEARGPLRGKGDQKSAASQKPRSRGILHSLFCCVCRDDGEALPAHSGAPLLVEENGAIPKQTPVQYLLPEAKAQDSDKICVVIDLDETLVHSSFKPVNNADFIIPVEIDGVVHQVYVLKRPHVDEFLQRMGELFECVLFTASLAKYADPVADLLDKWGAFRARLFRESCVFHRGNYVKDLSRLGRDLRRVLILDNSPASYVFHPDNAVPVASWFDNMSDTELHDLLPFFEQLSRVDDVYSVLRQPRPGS

[3] = target: T2, Small ubiquitin-related modifier 1 (Homo sapiens, UniProt P63165); assay: SUMO1 protein-protein binding blockers, potency – biochemical, FRET, dose response (AID 624383); assay type: functional; settings: read-out: IC50_Mean
T2 sequence (P63165 whole entry): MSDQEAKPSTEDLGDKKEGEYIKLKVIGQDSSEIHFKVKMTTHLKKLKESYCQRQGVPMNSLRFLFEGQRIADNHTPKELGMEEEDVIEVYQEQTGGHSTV

[4] = target: DNA dC->dU-editing enzyme APOBEC-3A (Homo sapiens, UniProt P31941); assay: A3A deaminase inhibition for selectivity – biochemical, dose response (AID 504722); assay type: functional
DNA dC->dU-editing enzyme APOBEC-3A, sequence (P31941 whole entry): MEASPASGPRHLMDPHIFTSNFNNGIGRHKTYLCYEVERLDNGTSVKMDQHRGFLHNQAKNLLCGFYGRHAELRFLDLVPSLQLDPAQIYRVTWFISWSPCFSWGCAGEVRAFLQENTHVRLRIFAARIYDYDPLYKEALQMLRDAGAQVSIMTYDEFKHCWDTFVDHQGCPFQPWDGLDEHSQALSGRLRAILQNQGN

[5] = target: T2, Small ubiquitin-related modifier 1; assay: SUMO1 protein interaction blockers, potency – biochemical, fluorescence polarization, uHTS hits, dose response (AID 624382); assay type: functional; settings: read-out: IC50_Mean
[6] = target: Beta-adrenergic receptor kinase 1 (Homo sapiens, UniProt P25098); assay: aptamer displacement from bead-bound GRK2 – biochemical, cherry pick 1, bead flow cytometry, dose response (AID 504500)
Beta-adrenergic receptor kinase 1, sequence (P25098 whole entry): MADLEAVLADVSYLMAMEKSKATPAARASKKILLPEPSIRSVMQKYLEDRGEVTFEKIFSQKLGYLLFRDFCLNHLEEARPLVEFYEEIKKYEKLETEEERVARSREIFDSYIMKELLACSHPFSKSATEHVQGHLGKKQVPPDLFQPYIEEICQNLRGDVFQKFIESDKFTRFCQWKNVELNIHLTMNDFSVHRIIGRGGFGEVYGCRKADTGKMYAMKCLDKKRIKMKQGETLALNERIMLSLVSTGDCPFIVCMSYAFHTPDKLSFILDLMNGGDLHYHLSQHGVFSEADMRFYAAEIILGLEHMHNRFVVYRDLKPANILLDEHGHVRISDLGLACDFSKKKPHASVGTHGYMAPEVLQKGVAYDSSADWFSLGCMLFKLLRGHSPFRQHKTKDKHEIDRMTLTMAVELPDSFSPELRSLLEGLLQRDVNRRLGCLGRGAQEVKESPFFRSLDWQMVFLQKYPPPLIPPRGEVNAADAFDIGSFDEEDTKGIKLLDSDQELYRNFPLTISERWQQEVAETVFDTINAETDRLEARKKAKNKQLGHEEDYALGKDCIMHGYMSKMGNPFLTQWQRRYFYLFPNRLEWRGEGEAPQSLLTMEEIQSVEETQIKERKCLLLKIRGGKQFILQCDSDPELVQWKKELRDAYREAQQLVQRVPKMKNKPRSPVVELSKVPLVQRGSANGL

[7] = viability loss in THP-1 monocytes – THP-1 cells, cytotoxicity control for Vif-APOBEC3G degradation inhibitor project, dose response (AID 1117359); assay type: functional; settings: THP-1
[8] = target: DNA dC->dU-editing enzyme APOBEC-3G (Homo sapiens, UniProt Q9HC16); assay: Dose Response confirmation of small molecule APOBEC3G DNA Deaminase Inhibitors via a fluorescence-based single-stranded DNA deaminase assay. [Related pubchem assays (depositor defined):AID493012, AID493028]; assay type: functional
DNA dC->dU-editing enzyme APOBEC-3G, sequence (Q9HC16 whole entry, the tested form may be a part): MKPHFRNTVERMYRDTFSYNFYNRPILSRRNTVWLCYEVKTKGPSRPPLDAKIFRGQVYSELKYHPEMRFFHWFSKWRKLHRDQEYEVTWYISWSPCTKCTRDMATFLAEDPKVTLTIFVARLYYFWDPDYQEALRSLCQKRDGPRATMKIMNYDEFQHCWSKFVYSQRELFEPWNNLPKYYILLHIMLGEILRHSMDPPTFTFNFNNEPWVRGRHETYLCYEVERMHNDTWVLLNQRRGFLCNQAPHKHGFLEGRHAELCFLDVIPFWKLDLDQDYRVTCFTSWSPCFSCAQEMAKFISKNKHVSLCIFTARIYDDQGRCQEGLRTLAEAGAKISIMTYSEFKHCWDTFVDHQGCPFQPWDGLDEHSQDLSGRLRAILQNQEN

[9] = target: T3, Hexokinase-1 (Homo sapiens, UniProt P19367); assay: SAR analysis of small molecule inhibitors of hexokinase domain containing I (HKDC1) in the hexokinase 1 selectivity assay. [Related pubchem assays (depositor defined):AID493160, AID493190]; assay type: functional
T3 sequence (P19367 whole entry): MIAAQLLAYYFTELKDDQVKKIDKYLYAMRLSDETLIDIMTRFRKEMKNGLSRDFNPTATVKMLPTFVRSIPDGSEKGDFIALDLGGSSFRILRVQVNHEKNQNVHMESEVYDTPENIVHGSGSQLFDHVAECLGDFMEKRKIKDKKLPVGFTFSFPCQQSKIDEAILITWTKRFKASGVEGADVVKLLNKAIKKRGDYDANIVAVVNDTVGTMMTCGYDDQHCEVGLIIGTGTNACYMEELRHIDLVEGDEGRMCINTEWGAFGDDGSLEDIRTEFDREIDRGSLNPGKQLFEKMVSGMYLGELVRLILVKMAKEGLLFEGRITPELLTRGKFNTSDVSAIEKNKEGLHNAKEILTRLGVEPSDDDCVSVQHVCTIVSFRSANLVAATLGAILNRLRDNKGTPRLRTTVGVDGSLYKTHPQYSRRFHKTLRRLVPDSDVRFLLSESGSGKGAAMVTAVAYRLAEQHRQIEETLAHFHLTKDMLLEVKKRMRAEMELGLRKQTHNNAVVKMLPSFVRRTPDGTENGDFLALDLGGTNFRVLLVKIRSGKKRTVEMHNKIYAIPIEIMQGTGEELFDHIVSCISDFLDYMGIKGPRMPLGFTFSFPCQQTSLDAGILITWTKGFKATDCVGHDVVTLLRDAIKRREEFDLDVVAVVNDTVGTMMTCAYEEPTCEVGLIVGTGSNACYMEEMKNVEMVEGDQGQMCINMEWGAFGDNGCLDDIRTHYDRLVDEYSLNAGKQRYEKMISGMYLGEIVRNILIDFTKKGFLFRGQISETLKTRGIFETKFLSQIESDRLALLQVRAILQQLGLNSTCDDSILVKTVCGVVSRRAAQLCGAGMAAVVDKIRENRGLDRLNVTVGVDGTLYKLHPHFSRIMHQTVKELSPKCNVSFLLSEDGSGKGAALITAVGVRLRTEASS

[10] = target: T4, Hexokinase HKDC1 (Homo sapiens, UniProt Q2TB90); assay: SAR analysis of small molecule inhibitors of hexokinase domain containing I (HKDC1). [Related pubchem assays (depositor defined):AID493160, AID493190]; assay type: functional
T4 sequence (Q2TB90 whole entry): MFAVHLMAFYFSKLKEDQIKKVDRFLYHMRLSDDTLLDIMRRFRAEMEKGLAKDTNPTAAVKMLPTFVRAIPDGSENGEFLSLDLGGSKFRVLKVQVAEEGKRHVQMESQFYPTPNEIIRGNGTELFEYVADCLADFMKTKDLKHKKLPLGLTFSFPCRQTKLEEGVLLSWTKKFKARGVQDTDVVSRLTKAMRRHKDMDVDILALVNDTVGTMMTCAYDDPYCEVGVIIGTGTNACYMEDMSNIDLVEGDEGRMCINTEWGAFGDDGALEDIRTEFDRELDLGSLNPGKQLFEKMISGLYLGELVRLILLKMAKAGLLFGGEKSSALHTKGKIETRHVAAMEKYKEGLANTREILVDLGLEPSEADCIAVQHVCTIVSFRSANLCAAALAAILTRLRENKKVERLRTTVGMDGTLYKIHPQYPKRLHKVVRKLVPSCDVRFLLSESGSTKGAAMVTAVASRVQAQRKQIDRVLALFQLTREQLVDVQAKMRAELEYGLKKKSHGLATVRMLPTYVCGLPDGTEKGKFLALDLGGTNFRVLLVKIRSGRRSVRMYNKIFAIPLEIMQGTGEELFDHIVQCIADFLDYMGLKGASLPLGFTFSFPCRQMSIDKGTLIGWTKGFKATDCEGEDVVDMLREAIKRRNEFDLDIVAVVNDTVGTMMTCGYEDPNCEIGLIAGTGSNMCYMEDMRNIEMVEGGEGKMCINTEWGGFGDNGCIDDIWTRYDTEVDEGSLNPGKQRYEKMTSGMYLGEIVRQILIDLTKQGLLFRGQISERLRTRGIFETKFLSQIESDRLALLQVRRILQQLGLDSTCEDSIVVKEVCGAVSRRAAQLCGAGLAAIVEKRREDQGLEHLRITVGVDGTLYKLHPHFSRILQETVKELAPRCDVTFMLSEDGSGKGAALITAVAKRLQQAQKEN

DNA topoisomerase, sequence (A0A2S9PM60 whole entry, the tested form may be a part): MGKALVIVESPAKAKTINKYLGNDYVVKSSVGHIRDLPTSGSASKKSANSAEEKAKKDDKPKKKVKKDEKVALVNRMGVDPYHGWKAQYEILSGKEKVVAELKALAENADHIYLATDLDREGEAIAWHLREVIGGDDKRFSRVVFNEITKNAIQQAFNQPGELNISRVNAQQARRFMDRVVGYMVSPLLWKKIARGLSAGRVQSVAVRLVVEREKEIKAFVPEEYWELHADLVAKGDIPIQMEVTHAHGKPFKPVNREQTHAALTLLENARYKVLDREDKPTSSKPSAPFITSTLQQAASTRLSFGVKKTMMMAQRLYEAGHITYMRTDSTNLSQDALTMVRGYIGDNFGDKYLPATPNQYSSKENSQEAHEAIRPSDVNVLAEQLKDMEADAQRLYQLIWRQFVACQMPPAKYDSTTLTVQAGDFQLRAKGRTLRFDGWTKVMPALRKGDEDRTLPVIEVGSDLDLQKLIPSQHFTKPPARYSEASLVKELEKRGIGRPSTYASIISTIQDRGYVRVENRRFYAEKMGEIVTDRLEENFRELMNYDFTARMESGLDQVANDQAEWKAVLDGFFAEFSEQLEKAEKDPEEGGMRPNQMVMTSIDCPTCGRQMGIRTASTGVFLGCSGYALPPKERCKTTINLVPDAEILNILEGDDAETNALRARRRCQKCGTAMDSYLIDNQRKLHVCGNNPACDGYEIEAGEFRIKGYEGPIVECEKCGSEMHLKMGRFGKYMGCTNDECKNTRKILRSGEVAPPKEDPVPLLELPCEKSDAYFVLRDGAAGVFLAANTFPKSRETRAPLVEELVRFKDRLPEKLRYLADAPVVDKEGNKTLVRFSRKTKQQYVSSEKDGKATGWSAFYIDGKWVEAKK

## Cc1cc(NC(=O)c2cc(-c3ccccc3)on2)n(-c2ccccc2)n1
[1]
  AC50: 4.16 µM (active)

## C=C(C)C(=O)Nc1cccc(C2=NOC3(C2)C[C@@H](C(N)=O)N(C(=O)CC(c2ccccc2)c2ccccc2)C3)c1 (stereo not given in full)
[2]
  IC50: 6.38 µM (active)
[3]
  IC50: 5.4 µM (active)
[4]
  IC50: > 100 µM (inactive)
[5]
  IC50: > 66.6 µM (inactive)
[6]
  EC50: 1.94 µM (active)
[7]
  CC50: > 40 µM (active)
[8]
  IC50: 15.3 µM (active)

## Cc1ccccc1/C=C/c1nc2ccccc2c(=O)n1Cc1ccccc1
[9]
  IC50: > 80 µM (inactive)
[10]
  IC50: > 80 µM (inactive)

From ChEMBL document CHEMBL1201862, “PubChem BioAssay data set” (2004)
